According to US9708314B2, “Heterocyclic amide compound” (NISSAN CHEMICAL INDUSTRIES, LTD., priority 2013, dated 2017):

What was measured:
Format in all cases: in vivo
Leptochloa chinensis = experiment: Test Example 3: herbicidal effect by application to foliage (Wagner pot, water depth 0.1-0.5 cm); conditions: Nineteenth Table; application to foliage; application herbicide amount 320 g/ha
Method in brief: (§1)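 Greenhouse pot test, 25–30 °C, alluvial soil. Sown seedlings grown 14 days then sprayed on leaves and stems with emulsion diluted to target g/ha. Rating at 3 weeks, 0–5 scale (0 ≤5%, 5 ≥90%).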

[1] = test system: Echinochloa crus-galli var. crus-galli; experiment: as above; conditions: Nineteenth Table; application to foliage; application herbicide amount 320 g/ha
Method in brief: as §1

Lolium multiflorum Lam. = experiment: Test Example 4: herbicidal effect by application to foliage (diluvial soil, plastic box); conditions: for K: herbicidal effect on Lolium multiflorum Lam.: application herbicide amount 320 g/ha
Method in brief: (§2)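 Greenhouse plants (25° C. to 30° C., 14 d, diluvial soil) receive a foliar spray of water-diluted emulsifiable formulation at defined g/ha. Grading after 3 weeks uses a six-step herbicidal-ratio scale, with 4 covering 70% to <90% and 1 covering 5% to <20%.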

Stellaria media = experiment: as above; conditions: application to foliage
Method in brief: as §2

Abutilon theophrasti = experiment: as above; conditions: for M: herbicidal effect on Abutilon theophrasti: application herbicide amount 320 g/ha
Method in brief: as §2

Veronica persica = experiment: as above
Method in brief: as §2

[2] = test system: Echinochloa crus-galli var. crus-galli; experiment: as above; conditions: for H: herbicidal effect on Echinochloa crus-galli var. crus-galli: application herbicide amount 320 g/ha
Method in brief: as §2

Apera spica-venti. = experiment: as above; conditions: for L: herbicidal effect on Apera spica-venti.: application herbicide amount 320 g/ha
Method in brief: as §2

Digitaria ciliaris = experiment: as above; conditions: for F: herbicidal effect on Digitaria ciliaris: application herbicide amount 320 g/ha
Method in brief: as §2

Chenopodium album = experiment: as above; conditions: for O: herbicidal effect on Chenopodium album: application herbicide amount 320 g/ha
Method in brief: as §2

Galium spurium = experiment: as above; conditions: for Q: herbicidal effect on Galium spurium: application herbicide amount 320 g/ha
Method in brief: as §2

Alopecurus myosuroides = experiment: as above; conditions: for J: herbicidal effect on Alopecurus myosuroides: application herbicide amount 320 g/ha
Method in brief: as §2

Setaria viridis = experiment: as above; conditions: for G: herbicidal effect on Setaria viridis: application herbicide amount 320 g/ha
Method in brief: as §2

Amaranthus retroflexus = experiment: as above; conditions: application to foliage; for N: herbicidal effect on Amaranthus retroflexus: application herbicide amount 320 g/ha
Method in brief: as §2

Avena fatua = experiment: as above; conditions: for I: herbicidal effect on Avena fatua: application herbicide amount 320 g/ha
Method in brief: as §2

Glycine max = experiment: Test Example 4: effect on crop by application to foliage (diluvial soil, plastic box); conditions: for d: effect on crop, Glycine max: application herbicide amount 320 g/ha
Method in brief: as §2

[3] = test system: Beta vulgaris ssp. vulgaris; experiment: as above; conditions: for f: effect on crop, Beta vulgaris ssp. vulgaris: application herbicide amount 320 g/ha
Method in brief: as §2

Triticum aestivum = experiment: as above; conditions: for e: effect on crop, Triticum aestivum: application herbicide amount 320 g/ha
Method in brief: as §2

[4] = test system: directly sowed Oryza sativa; experiment: as above; conditions: for b: effect on crop, directly sowed Oryza sativa: application herbicide amount 320 g/ha
Method in brief: as §2

Brassica campestris L. = experiment: as above; conditions: for g: effect on crop, Brassica campestris L.: application herbicide amount 320 g/ha
Method in brief: as §2

Zea mays = experiment: as above; conditions: for c: effect on crop, Zea mays: application herbicide amount 320 g/ha
Method in brief: as §2

[5] = application to foliage, 320 g/ha
[6] = Application herbicide amount 320 g/ha
[7] = Application herbicide amount 320 g/ha, effect on crop

| SMILES | D (herbicidal effect grade) (Leptochloa chinensis) | H (herbicidal effect grade) [1] | K: herbicidal effect on Lolium multiflorum Lam. (Lolium multiflorum Lam.; application to foliage) | M: herbicidal effect on Abutilon theophrasti (Abutilon theophrasti; application to foliage) | H: herbicidal effect on Echinochloa crus-galli var. crus-galli ([2]; application to foliage) | L: herbicidal effect on Apera spica-venti. (Apera spica-venti.; application to foliage) | F: herbicidal effect on Digitaria ciliaris (Digitaria ciliaris; application to foliage) | O: herbicidal effect on Chenopodium album (Chenopodium album; application to foliage) | Q: herbicidal effect on Galium spurium (Galium spurium; application to foliage) | J: herbicidal effect on Alopecurus myosuroides (Alopecurus myosuroides; application to foliage) | G: herbicidal effect on Setaria viridis (Setaria viridis; application to foliage) | N: herbicidal effect on Amaranthus retroflexus (Amaranthus retroflexus) | I: herbicidal effect on Avena fatua (Avena fatua; application to foliage) | d: effect on crop, Glycine max (Glycine max; application to foliage) | f: effect on crop, Beta vulgaris ssp. vulgaris ([3]; application to foliage) | e: effect on crop, Triticum aestivum (Triticum aestivum; application to foliage) | b: effect on crop, directly sowed Oryza sativa ([4]; application to foliage) | g: effect on crop, Brassica campestris L. (Brassica campestris L.; application to foliage) | c: effect on crop, Zea mays (Zea mays; application to foliage) | also measured |
| --- | --- | --- | --- | --- | --- | --- | --- | --- | --- | --- | --- | --- | --- | --- | --- | --- | --- | --- | --- | --- |
| CCSc1nnc2c(C(=O)Nc3ncnn3C)ccc(C(F)(F)F)n12 [4-003] | 3 (Herbicidal ratio of 40% or more and less than 70%) | 4 (Herbicidal ratio of 70% or more and less than 90%) | – | – | – | – | – | – | – | – | – | – | – | – | – | – | – | – | – | herbicidal effect, K (Lolium multiflorum Lam.) (Lolium multiflorum Lam.; [5]): 0 (Herbicidal ratio of 5% or less (almost no effect)); herbicidal effect, P (Stellaria media) (Stellaria media; 320 g/ha): 4 (Herbicidal ratio of 70% or more and less than 90%); herbicidal effect, M (Abutilon theophrasti) (Abutilon theophrasti; [5]): 4 (Herbicidal ratio of 70% or more and less than 90%); herbicidal effect, R (Veronica persica) (Veronica persica; [5]): 2 (Herbicidal ratio of 20% or more and less than 40%); herbicidal effect, H (Echinochloa crus-galli var. crus-galli) [2, 5]: 4 (Herbicidal ratio of 70% or more and less than 90%); herbicidal effect, L (Apera spica-venti.) (Apera spica-venti.; [5]): 1 (Herbicidal ratio of 5% or more and less than 20%); herbicidal effect, F (Digitaria ciliaris) (Digitaria ciliaris; [5]): 2 (Herbicidal ratio of 20% or more and less than 40%); herbicidal effect, O (Chenopodium album) (Chenopodium album; [5]): 5 (Herbicidal ratio of 90% or more (almost completely withered)); herbicidal effect, Q (Galium spurium) (Galium spurium; [5]): 1 (Herbicidal ratio of 5% or more and less than 20%); herbicidal effect, J (Alopecurus myosuroides) (Alopecurus myosuroides; [5]): 0 (Herbicidal ratio of 5% or less (almost no effect)); herbicidal effect, G (Setaria viridis) (Setaria viridis; [5]): 1 (Herbicidal ratio of 5% or more and less than 20%); herbicidal effect, N (Amaranthus retroflexus) (Amaranthus retroflexus; 320 g/ha): 2 (Herbicidal ratio of 20% or more and less than 40%); herbicidal effect, I (Avena fatua) (Avena fatua; [5]): 0 (Herbicidal ratio of 5% or less (almost no effect)); effect on crop, c (Glycine max) (Glycine max; [5]): 0 (Herbicidal ratio of 5% or less (almost no effect)); effect on crop, f (Beta vulgaris ssp. vulgaris) [3, 5]: 4 (Herbicidal ratio of 70% or more and less than 90%); effect on crop, e (Triticum aestivum) (Triticum aestivum; [5]): 0 (Herbicidal ratio of 5% or less (almost no effect)); effect on crop, d (directly sowed Oryza sativa) [4, 5]: 4 (Herbicidal ratio of 70% or more and less than 90%); effect on crop, g (Brassica campestris L.) (Brassica campestris L.; [5]): 1 (Herbicidal ratio of 5% or more and less than 20%); effect on crop, b (Zea mays) (Zea mays; [5]): 0 (Herbicidal ratio of 5% or less (almost no effect)) |
| C=CCN(C)c1nnc2c(C(=O)Nc3nnc(C)o3)ccc(C(F)(F)F)n12 [1-166] | 3 (Herbicidal ratio of 40% or more and less than 70%) | 4 (Herbicidal ratio of 70% or more and less than 90%) | 1 (Herbicidal ratio of 5% or more and less than 20%) | 3 (Herbicidal ratio of 40% or more and less than 70%) | 5 (Herbicidal ratio of 90% or more (almost completely withered)) | 1 (Herbicidal ratio of 5% or more and less than 20%) | 5 (Herbicidal ratio of 90% or more (almost completely withered)) | 5 (Herbicidal ratio of 90% or more (almost completely withered)) | 1 (Herbicidal ratio of 5% or more and less than 20%) | 0 (Herbicidal ratio of 5% or less (almost no effect)) | 4 (Herbicidal ratio of 70% or more and less than 90%) | 4 (Herbicidal ratio of 70% or more and less than 90%) | 1 (Herbicidal ratio of 5% or more and less than 20%) | 4 (Herbicidal ratio of 70% or more and less than 90%) | 5 (Herbicidal ratio of 90% or more (almost completely withered)) | 0 (Herbicidal ratio of 5% or less (almost no effect)) | 0 (Herbicidal ratio of 5% or less (almost no effect)) | 4 (Herbicidal ratio of 70% or more and less than 90%) | 0 (Herbicidal ratio of 5% or less (almost no effect)) | P: herbicidal effect on Stellaria media (Stellaria media; application herbicide amount 320 g/ha): 4 (Herbicidal ratio of 70% or more and less than 90%) |
| Cc1nnc(NC(=O)c2ccc(C(F)(F)F)n3c(CC(=O)NC(C)C)nnc23)o1 [1-061] | 4 (Herbicidal ratio of 70% or more and less than 90%) | 5 (Herbicidal ratio of 90% or more (almost completely withered)) | – | – | – | – | – | – | – | – | – | – | – | – | – | – | – | – | – | K (Lolium multiflorum Lam.; [6]): 1 (Herbicidal ratio of 5% or more and less than 20%); M (Abutilon theophrasti; [6]): 5 (Herbicidal ratio of 90% or more (almost completely withered)); R (Veronica persica; [6]): 5 (Herbicidal ratio of 90% or more (almost completely withered)); H [2, 6]: 4 (Herbicidal ratio of 70% or more and less than 90%); L (Apera spica-venti.; [6]): 1 (Herbicidal ratio of 5% or more and less than 20%); F (Digitaria ciliaris; [6]): 3 (Herbicidal ratio of 40% or more and less than 70%); O (Chenopodium album; [6]): 5 (Herbicidal ratio of 90% or more (almost completely withered)); Q (Galium spurium; [6]): 4 (Herbicidal ratio of 70% or more and less than 90%); J (Alopecurus myosuroides; [6]): 1 (Herbicidal ratio of 5% or more and less than 20%); G (Setaria viridis; [6]): 3 (Herbicidal ratio of 40% or more and less than 70%); I (Avena fatua; [6]): 3 (Herbicidal ratio of 40% or more and less than 70%); c (Glycine max; [7]): 1 (Herbicidal ratio of 5% or more and less than 20%); f [3, 7]: 4 (Herbicidal ratio of 70% or more and less than 90%); e (Triticum aestivum; [7]): 0 (Herbicidal ratio of 5% or less (almost no effect)); d [4, 7]: 4 (Herbicidal ratio of 70% or more and less than 90%); g (Brassica campestris L.; [7]): 4 (Herbicidal ratio of 70% or more and less than 90%); b (Zea mays; [7]): 1 (Herbicidal ratio of 5% or more and less than 20%) |
| CN(CCC#N)c1nnc2c(C(=O)Nc3nnco3)ccc(C(F)(F)F)n12 [1-164] | 5 (Herbicidal ratio of 90% or more (almost completely withered)) | 5 (Herbicidal ratio of 90% or more (almost completely withered)) | 1 (Herbicidal ratio of 5% or more and less than 20%) | 4 (Herbicidal ratio of 70% or more and less than 90%) | 5 (Herbicidal ratio of 90% or more (almost completely withered)) | 3 (Herbicidal ratio of 40% or more and less than 70%) | 5 (Herbicidal ratio of 90% or more (almost completely withered)) | 5 (Herbicidal ratio of 90% or more (almost completely withered)) | 4 (Herbicidal ratio of 70% or more and less than 90%) | 1 (Herbicidal ratio of 5% or more and less than 20%) | 5 (Herbicidal ratio of 90% or more (almost completely withered)) | 5 (Herbicidal ratio of 90% or more (almost completely withered)) | 3 (Herbicidal ratio of 40% or more and less than 70%) | 5 (Herbicidal ratio of 90% or more (almost completely withered)) | 5 (Herbicidal ratio of 90% or more (almost completely withered)) | 3 (Herbicidal ratio of 40% or more and less than 70%) | 4 (Herbicidal ratio of 70% or more and less than 90%) | 4 (Herbicidal ratio of 70% or more and less than 90%) | 0 (Herbicidal ratio of 5% or less (almost no effect)) | – |
